Measured values: patent US9936701B2, “Herbicidal compounds” (Syngenta Participations AG, priority 2013, dated 2018)

Experiments:
[1] = tested on: a variety of test species; experiment: Pre-emergence herbicidal activity (glasshouse, sprayed one day after sowing, evaluated after 13 days); format: in vivo; set-up: key: 5=total damage to plant; 0=no damage to plant; settings: application pre-emergence, rate 1000 g/Ha, scale 0-5
Outline: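 Visual 0–5 injury score (5 = total damage) taken 13 days after spraying. Treatment applied one day after sowing, before emergence; glasshouse at 24/16 °C day/night, 14 h photoperiod, 65% humidity.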

[2] = tested on: a variety of test species; experiment: Post-emergence herbicidal activity (glasshouse, sprayed after 8 days cultivation, evaluated after 13 days); format: in vivo; set-up: key: 5=total damage to plant; 0=no damage to plant; settings: rate 1000 g/Ha, scale 0-5
Outline: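 Damage rating 0 (none) to 5 (total), assessed 13 days after spraying. Plants received the compound in acetone/water 50:50 with 0.5% Tween 20 at 8 days post-sowing, then were kept at 24/16 °C, 14 h photoperiod, 65% RH.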

Row | Compound | Pre-emergence herbicidal damage score, ABUTH [1] | Pre-emergence herbicidal damage score, ALOMY [1] | Pre-emergence herbicidal damage score, AMARE [1] | Pre-emergence herbicidal damage score, ECHCG [1] | Pre-emergence herbicidal damage score, SETFA [1] | Pre-emergence herbicidal damage score, ZEAMX [1] | ABUTH (Abutilon theophrasti) damage score, application post-emergence [2] | ALOMY (Alopecurus myosuroides) damage score, application post-emergence [2] | AMARE (Amaranthus retroflexus) damage score, application post-emergence [2] | ECHCG (Echinochloa crus-galli) damage score, application post-emergence [2] | SETFA (Setaria faberi) damage score, application post-emergence [2] | ZEAMX (Zea mays) damage score, application post-emergence [2] | melting point [°C]
1 | CCC1=C(Br)C(=O)N(c2noc(C(C)(C)C)c2C#N)C1O (stereo not shown) [A55] | 5 | 4 | 5 | 5 | 5 | 3 | 5 | 5 | 5 | 5 | 5 | 4 | 138 to 140
2 | CCOC(C)(C)CCCc1cc(N2C(=O)C(Cl)=C(C)C2O)no1 (stereo not shown) [A36] | 5 | 3 | 5 | 4 | 1 | 1 | 5 | 4 | 5 | 5 | 2 | 1 | 110 to 112
3 | CCC1=C(Cl)C(=O)N(c2noc(C(C)(C)CC)c2C#N)C1O (stereo not shown) [A60] | 5 | 3 | 5 | 4 | 5 | 3 | 5 | 4 | 5 | 5 | 5 | 2 | 110 to 112
4 | COC1=C(C)CN(c2noc(C(C)C)c2C#N)C1=O [D10] | 4 | 3 | 5 | 5 | 5 | 2 | 4 | 5 | 5 | 5 | 5 | 2 | 131 to 133
5 | CC1=C(Cl)C(=O)N(c2cc(C(C)(C)C)on2)C1OC(=O)OCC(C)C (stereo not shown) [A80] | 5 | 4 | 5 | 5 | 5 | 3 | 5 | 5 | 5 | 5 | 5 | 3 | 84 to 88
6 | CCC1=C(Cl)C(=O)N(c2cc(C(C)(C)C#N)on2)C1O (stereo not shown) [A64] | 4 | 3 | 5 | 5 | 5 | 1 | 5 | 5 | 5 | 5 | 5 | 4 | 101 to 102
7 | CCC1=C(Cl)C(=O)N(c2noc(C(C)C)c2C#N)C1O (stereo not shown) [A63] | 5 | 3 | 5 | 5 | 5 | 3 | 5 | 4 | 5 | 5 | 5 | 3 | 93 to 95
8 | COC1=C(Cl)CN(c2cc(C(C)(C)C)on2)C1=O [E3] | 2 | 1 | 5 | 3 | 3 | 1 | 1 | 0 | 2 | 2 | 4 | 0 | 94 to 106
9 | CC1=C(Br)C(=O)N(c2noc(C(C)(C)C)c2C#N)C1O (stereo not shown) [A50] | 5 | 3 | 5 | 4 | 5 | 3 | 5 | 4 | 5 | 5 | 5 | 3 | 182 to 184
10 | CC(C)(C)c1cc(N2C(=O)C(Cl)=C(NC3CC3)C2O)no1 (stereo not shown) [C8] | 5 | 3 | 5 | 5 | 3 | 2 | 5 | 4 | 5 | 5 | 5 | 4 | 179 to 180
